Measurements as given in patent publication US20250281607A1, “MEDICAMENT FOR TREATMENT AND/OR PREVENTION OF CANCER” (TORAY INDUSTRIES, INC., priority 2021, published 2025).
Blank lines part the entries; values can stand above or below the molecule they belong to.

Tests used:
[1] = test system: colon cancer cell line HCT116; assay: THP-1-mediated phagocytic activity against HCT116 (Examples 3 to 6); type: cell-based, human; settings: cells cultured 2 days with drug at 10 μM, then anti-CAPRIN-1 humanized antibody #1 1 μg/mL
Experimental: Specifically, in each RAS inhibitor combination test group, the indicated drug used in combination was applied to human cancer cells, and then the cancer cells were cocultured with human monocytic cells (THP-1) in the presence of the anti-CAPRIN-1 antibody, and the antibody-mediated phagocytic activity against the cancer cells by THP-1 was evaluated.
The human-derived cancer cells used were a colon cancer cell line HCT116. On a 6-well plate, the human-derived cancer cells were cultured for 2 days in the presence of the indicated drug used in combination in the lonafarnib combination test group, the sotorasib combination test group and the salirasib combination test group. […]
Each cancer cell line after the culture was dissociated with TrypLE Express (Thermo), and the cancer cells were stained by the addition of calcein-AM at a final concentration of 0.04 μg/mL and incubation at 37° C. for 10 minutes. […] Further, dead cells were stained with propidium iodide (PI) (final concentration: 0.1 μg/mL), followed by the measurement of fluorescence from the cells by flow cytometry. […] Thus, the phagocytic activity in this evaluation system was calculated as the ratio (%) of APC-positive/calcein-AM-positive cells to the whole calcein-AM-positive population. […]

[2] = test system: colon cancer cell line HCT116; assay: THP-1-mediated phagocytic activity against HCT116 (Example 2); type: cell-based, human; settings: then anti-CAPRIN-1 humanized antibody #1 5 μg/mL, FIG. 2
Experimental: Specifically, in each combination test group (a trametinib combination test group, a fluorouracil combination test group and an irinotecan combination test group), the indicated drug used in combination was applied to human cancer cells, and then the cancer cells were cocultured with human monocytic cells (THP-1) in the presence of the anti-CAPRIN-1 antibody, and the antibody-mediated phagocytic activity against the cancer cells by THP-1 was evaluated. The human-derived cancer cells used were melanoma cell line A375 (used only in the trametinib combination test group), colon cancer cell line HCT116, prostate cancer cell line DU145 (used only in the trametinib combination test group), and lung cancer cell line A549 (used only in the trametinib combination test group). On a 6-well plate, the human-derived cancer cells were cultured for 2 days in the presence of trametinib for the trametinib combination test group, and cultured for 2 days in the presence of the each drug used in combination for the fluorouracil combination test group and the irinotecan combination test group. The concentration of the drug used in combination was set to a concentration that decreased the proliferation rate of the cancer cells by about half at the completion of culture. […]
Each cancer cell line after the culture was dissociated with TrypLE Express (Thermo), and the cancer cells were stained by the addition of calcein-AM at a final concentration of 0.02 μg/mL and incubation at 37° C. for 30 minutes. […] Further, dead cells were stained with propidium iodide (PI) (final concentration: 0.1 μg/mL), followed by the measurement of fluorescence from the cells by flow cytometry. […] Thus, the phagocytic activity in this evaluation system was calculated as the ratio (%) of APC-positive/calcein-AM-positive cells to the whole calcein-AM-positive population.

CAPRIN-1 protein = molecular target: T1, CAPRIN-1 protein (Homo sapiens, UniProt Q14444); assay: ELISA reactivity with CAPRIN-1 protein immobilized on a plate; type: binding
T1 construct: made in house
T1 sequence (Q14444 1-709): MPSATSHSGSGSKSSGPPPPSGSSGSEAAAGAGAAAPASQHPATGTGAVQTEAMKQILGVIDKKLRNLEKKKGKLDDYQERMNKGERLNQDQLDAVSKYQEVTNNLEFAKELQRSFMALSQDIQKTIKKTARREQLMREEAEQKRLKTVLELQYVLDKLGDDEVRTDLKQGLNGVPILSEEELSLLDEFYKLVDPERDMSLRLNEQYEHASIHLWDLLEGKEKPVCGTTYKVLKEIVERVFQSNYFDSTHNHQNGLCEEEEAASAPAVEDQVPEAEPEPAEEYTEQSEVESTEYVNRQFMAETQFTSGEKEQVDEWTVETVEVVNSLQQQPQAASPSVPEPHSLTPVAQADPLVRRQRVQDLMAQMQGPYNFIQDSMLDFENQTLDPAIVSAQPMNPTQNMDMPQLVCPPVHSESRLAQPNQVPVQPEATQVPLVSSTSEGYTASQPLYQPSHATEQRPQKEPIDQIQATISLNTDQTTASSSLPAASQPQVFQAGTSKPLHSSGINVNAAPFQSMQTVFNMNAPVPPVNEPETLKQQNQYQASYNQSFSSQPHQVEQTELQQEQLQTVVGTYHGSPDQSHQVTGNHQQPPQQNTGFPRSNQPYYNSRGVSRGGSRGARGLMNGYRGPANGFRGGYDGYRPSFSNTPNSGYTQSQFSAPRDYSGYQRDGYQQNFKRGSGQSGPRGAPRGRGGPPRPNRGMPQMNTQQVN
Experimental: One hundred (100) μg of a human CAPRIN-1 recombinant protein produced according to Example 3 of WO2010/016526 was mixed with a MPL+TDM adjuvant (Sigma) in an amount equivalent to that of the recombinant protein. The mixture was used as an antigen solution per mouse. The antigen solution was administered intraperitoneally to 6-week-old Balb/c mice (Japan SLC Inc.) and then further administered 3 times […] every week for completion of immunization. A spleen was removed on day 3 after the final immunization and then ground between two sterilized glass slides. Spleen cells were obtained by repeating the following procedure three times: washing with PBS (-) (Nissui Corporation), centrifuging at 1500 rpm for 10 minutes, and removing supernatant. The obtained spleen cells were mixed with mouse myeloma cell SP2/0 (purchased from ATCC) at a ratio of 10:1. The PEG solution prepared by mixing 200 μl of RPMI1640 medium containing 10% FBS heated at 37° C. and 800 μl of PEG1500 (Boehringer) was added to the cells. The solution was incubated for 5 minutes for cell fusion. Centrifugation was performed at 1700 rpm for 5 minutes to remove supernatants. […] Absorbance at 450 nm and absorbance at 595 nm were measured using an absorption spectrometer. As a result, a plurality of hybridomas producing antibodies with high absorbances were selected. […]

Molecule: O=C(Nc1ccc2[nH]nc(-c3ccncc3)c2c1)[C@@H]1CCN(CC(=O)N2CCN(c3ccc(-c4ncccn4)cc3)CC2)C1 [SCH772984, (3R)-1-[2-oxo-2-[4-(4-pyrimidin-2-ylphenyl)piperazin-1-yl]ethyl]-N-(3-pyridin-4-yl-1H-indazol-5-yl)pyrrolidine-3-carboxamide]
phagocytic activity against cancer cells ([1]; FIG. 5): 90%

Molecule: O=c1[nH]cc(F)c(=O)[nH]1 [fluorouracil]
phagocytic activity against cancer cells ([2]; cells cultured 2 days with drug at 0.4 μg/mL): 16%

Molecule: COc1cc(Nc2c(C#N)cnc3cc(OCCCN4CCN(C)CC4)c(OC)cc23)c(Cl)cc1Cl [bosutinib, 4-(2,4-dichloro-5-methoxyanilino)-6-methoxy-7-[3-(4-methylpiperazin-1-yl)propoxy]quinoline-3-carbonitrile]
phagocytic activity against cancer cells ([1]; FIG. 3): 82%

Molecule: CCc1c2c(nc3ccc(OC(=O)N4CCC(N5CCCCC5)CC4)cc13)-c1cc3c(c(=O)n1C2)COC(=O)[C@]3(O)CC [irinotecan]
phagocytic activity against cancer cells ([2]; cells cultured 2 days with drug at 15 μM): 14%

specific reactivity to CAPRIN-1 protein (CAPRIN-1 protein): exhibiting reactivity
B1: monoclonal antibody against CAPRIN-1 described in WO2013/125630: mouse monoclonal antibody; heavy-chain variable region SEQ ID NO: 114, light-chain variable region SEQ ID NO: 115; parent of humanized … (antibody, listed as Mus musculus, V domains shown)
VH: GPELVKPGASVKMSCKASGYTFTSYVMHWVKQKPGQGLEWIGYINPYNDGTKYNEKFKGKATLTSDKSSSTAYMELSSLTSEDSAVYYCARRYYYGSSGGYFDVWAQDHVRT
VL: DVQITQSPSYLAASPGETITINCRASKSISKYLAWYQEKPGKTNKLLIYSGSTLQSGIPSRFSGSGSGTDFTLTISSLEPEDFAMYYCQQHNEYPYTFGGGTKLEIKR
notes: mouse monoclonal antibody; parent of humanized antibody #1
